Experimental data published in US4877893A, “Process for the preparation of 2-(O-alkyl)-2-thio-1,3,2-oxathiophospholanes” (priority 1987, dated 1989).

Columns and labels:
Sclerotinia sp. = test: Fungicidal effect on paprika seeds on agar, colony diameter; assay type: cell-based; details: 5th day, control 41.50
Method: (§1) The test is carried out on paprika seeds placed on agar nutrient medium and impregnated with phytopathogenic Fungi (Alternaria sp., Penicillium sp., Sclerotinia sp.). The paprika seeds are treated with various doses of 2-(0-2'-chloroethyl)-2-thio-1,3,2-oxathiophospholane (Compound No. 1 of Table I) and the known fungicidal agent Aliette, respectively.
(§2) The concentration data relate to the active ingredient. Treatment is carried out by using a 20 EC prepared according to Example 27. Evaluation is carried out on the 5th day after treatment by measuring the diameter of the Fungi colonies.

Penicillium sp. = test: as above; assay type: cell-based; details: 5th day, control 23.35
Method: as §1, §2

Alternaria sp. = test: as above; assay type: cell-based; details: 5th day, control 36.62
Method: as §1, §2

[1] = tested on: maize seeds strongly infected by pathogens; test: Seed dressing test, shoot up %; assay type: in vivo; details: related to untreated control = 100
Text: (§3) In this test cotton, maize, sunflower and sugar beet seeds strongly infected by pathogens and treated with different doses of 2-(0-2'-chloroethyl)-2-thio-1,3,2-oxathiophospholane (Compound No. 1) are used. The doses amount to 50, 100 and 200 g of active ingredient, respectively. As reference seeds being either untreated or treated with Mancozeb (manganese +zinc/-ethylene bis-dithiocarbamte) 0.8 kg/t +Benomyl (1-butyl carbamoyl-benzimidazole-2-methylcarbamate) 0.5 kg/t are used.
(§4) Compound No. 1 of the present invention is formulated as 50 WP in an analogous manner to Example 31. The test is carried out in six replicates, by sowing 10 seeds in each replicate. The results are evaluated by determining the shoot up % related to the control.

[2] = tested on: sunflower seeds strongly infected by pathogens; test: Seed dressing test, shoot up %; assay type: in vivo; details: related to untreated control = 100
Text: as §3, §4

[3] = tested on: cotton seeds strongly infected by pathogens; test: Seed dressing test, shoot up %; assay type: in vivo; details: related to untreated control = 100
Text: as §3, §4

[4] = tested on: sugar beet seeds strongly infected by pathogens; test: Seed dressing test, shoot up %; assay type: in vivo; details: related to untreated control = 100
Text: as §3, §4

Sclerotinia sclerotinia = test: Fungicidal effect on infected agar nutrient media, colony diameter; assay type: cell-based; details: 3rd day after treatment, untreated control 41.7
Method: Agar nutrient media (Diameter 70 MM, thickness 10 mm) infected by Sclerotonia sclerotinia suspension are treated with 20 EC formulations prepared according to Example 27 and comprising 1, 10, 100 and 1000 ppm, respectively of the active ingredient of the Formula I. The fungicidal effect of the compositions is evaluated on the 3rd day after treatment by measuring the diameter of the Fungi colonies.

[5] = tested on: Fusarium sp. and Alternaria sp.; test: Soil disinfection test, shoot up %; assay type: in vivo, sugar beet; details: 1 kg of active ingredient/ha; soil disinfectant granules; untreated control = 100
Method: (§5) The soil is watered and admixed with a Fusarium sp. and Alternaria sp. suspension. In the infected soil cotton and sugar beet seeds are sown, namely 10 seeds per replicate. Eight replicates are used in the test. The soil is treated with 2-(0-2'-chloroethyl)-2-thio-1,3,2-oxathiophospholane (Compound No. 1) in a dose of 1 kg of active ingredient.ha^- 1. Treatment is carried out with soil disinfectant granules prepared in an analogous manner to Example 33. Evaluation is carried out by determining the shoot up % related to the untreated control.

Penicillium cyclopium = test: Fungicidal effect on infected agar nutrient media, colony diameter; assay type: cell-based; details: 7th day after treatment, untreated 26.5
Outline: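 Agar media (70 mm diameter, 10 mm thick) infected with Penicillium cyclopium were treated with EC formulations at 1, 10, 100 and 1000 ppm active ingredient. Fungal colony diameter was measured on day 7 after treatment.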

Alternaria tenuis = test: as above; assay type: cell-based; details: 5th day after treatment, untreated control 36.8
Outline: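 Agar media (70 mm diameter, 10 mm thick) infected with Alternaria tenuis, treated with EC formulations at 1, 10, 100 and 1000 ppm active ingredient. Fungicidal effect read on day 5 after treatment as fungal colony diameter.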

[6] = tested on: Fusarium sp. and Alternaria sp.; test: Soil disinfection test, shoot up %; assay type: in vivo, cotton; details: 1 kg of active ingredient/ha; soil disinfectant granules; untreated control = 100
Method: as §5

## CCO[PH](=O)O [Aliette, aluminum-tris-(O-ethyl-phosphate), reference compound]
Sclerotinia sp.; 1 ppm
  Diameter of Colony (MM) Sclerotinia: 40.45 MM
Sclerotinia sp.; 5 ppm
  Diameter of Colony (MM) Sclerotinia: 39.64 MM
Sclerotinia sp.; 10 ppm
  Diameter of Colony (MM) Sclerotinia: 36.44 MM
Sclerotinia sp.; 50 ppm
  Diameter of Colony (MM) Sclerotinia: 28.06 MM
Sclerotinia sp.; 100 ppm
  Diameter of Colony (MM) Sclerotinia: 22.40 MM
Sclerotinia sp.; 1000 ppm
  Diameter of Colony (MM) Sclerotinia: 6.75 MM
Penicillium sp.; 1 ppm
  Diameter of Colony (MM) Penicillium: 21.35 MM
Penicillium sp.; 5 ppm
  Diameter of Colony (MM) Penicillium: 20.66 MM
Penicillium sp.; 10 ppm
  Diameter of Colony (MM) Penicillium: 18.45 MM
Penicillium sp.; 50 ppm
  Diameter of Colony (MM) Penicillium: 17.63 MM
Penicillium sp.; 100 ppm
  Diameter of Colony (MM) Penicillium: 16.62 MM
Penicillium sp.; 1000 ppm
  Diameter of Colony (MM) Penicillium: 10.15 MM
Alternaria sp.; 1 ppm
  Diameter of Colony (MM) Alternaria: 34.05 MM
Alternaria sp.; 5 ppm
  Diameter of Colony (MM) Alternaria: 35.16 MM
Alternaria sp.; 10 ppm
  Diameter of Colony (MM) Alternaria: 29.41 MM
Alternaria sp.; 50 ppm
  Diameter of Colony (MM) Alternaria: 26.13 MM
Alternaria sp.; 100 ppm
  Diameter of Colony (MM) Alternaria: 19.16 MM
Alternaria sp.; 1000 ppm
  Diameter of Colony (MM) Alternaria: 8.92 MM

## S=P1(OCCCl)OCCS1 (centres unmarked) [Compound 1, 2-(O-2'-chloroethyl)-2-thio-1,3,2-oxathiophospholane]
[1]; 50 g/t
  Shoot up % Maize: 121%
[1]; 100 g/t
  Shoot up % Maize: 133%
[1]; 200 g/t
  Shoot up % Maize: 125%
[2]; 50 g/t
  Shoot up % Sunflower: 132%
[2]; 100 g/t
  Shoot up % Sunflower: 154%
[2]; 200 g/t
  Shoot up % Sunflower: 129%
[3]; 50 g/t
  Shoot up % Cotton: 146%
[3]; 100 g/t
  Shoot up % Cotton: 218%
[3]; 200 g/t
  Shoot up % Cotton: 255%
[4]; 50 g/t
  Shoot up % Sugar beet: 205%
[4]; 100 g/t
  Shoot up % Sugar beet: 312%
[4]; 200 g/t
  Shoot up % Sugar beet: 156%
Sclerotinia sclerotinia; 1 ppm
  Diameter of colony (mm): 39.4 mm
Sclerotinia sclerotinia; 10 ppm
  Diameter of colony (mm): 31.7 mm
Sclerotinia sclerotinia; 100 ppm
  Diameter of colony (mm): 3.5 mm
Sclerotinia sclerotinia; 1000 ppm
  Diameter of colony (mm): 0 mm
[5]
  Shoot up % Sugar beet: 346%
Sclerotinia sp.; 1 ppm
  Diameter of Colony (MM) Sclerotinia: 39.37 MM
Sclerotinia sp.; 5 ppm
  Diameter of Colony (MM) Sclerotinia: 40.62 MM
Sclerotinia sp.; 10 ppm
  Diameter of Colony (MM) Sclerotinia: 31.75 MM
Sclerotinia sp.; 50 ppm
  Diameter of Colony (MM) Sclerotinia: 10.62 MM
Sclerotinia sp.; 100 ppm
  Diameter of Colony (MM) Sclerotinia: 3.50 MM
Sclerotinia sp.; 1000 ppm
  Diameter of Colony (MM) Sclerotinia: 0 MM
Penicillium sp.; 1 ppm
  Diameter of Colony (MM) Penicillium: 22.20 MM
Penicillium sp.; 5 ppm
  Diameter of Colony (MM) Penicillium: 20.05 MM
Penicillium sp.; 10 ppm
  Diameter of Colony (MM) Penicillium: 20.05 MM
Penicillium sp.; 50 ppm
  Diameter of Colony (MM) Penicillium: 19.40 MM
Penicillium sp.; 100 ppm
  Diameter of Colony (MM) Penicillium: 8.12 MM
Penicillium sp.; 1000 ppm
  Diameter of Colony (MM) Penicillium: 0 MM
Alternaria sp.; 1 ppm
  Diameter of Colony (MM) Alternaria: 33.50 MM
Alternaria sp.; 5 ppm
  Diameter of Colony (MM) Alternaria: 32.25 MM
Alternaria sp.; 10 ppm
  Diameter of Colony (MM) Alternaria: 25.87 MM
Alternaria sp.; 50 ppm
  Diameter of Colony (MM) Alternaria: 16.75 MM
Alternaria sp.; 100 ppm
  Diameter of Colony (MM) Alternaria: 7.62 MM
Alternaria sp.; 1000 ppm
  Diameter of Colony (MM) Alternaria: 0 MM
Penicillium cyclopium; 1 ppm
  Diameter of colony (mm): 23.2 mm
Penicillium cyclopium; 10 ppm
  Diameter of colony (mm): 20.0 mm
Penicillium cyclopium; 100 ppm
  Diameter of colony (mm): 8.0 mm
Penicillium cyclopium; 1000 ppm
  Diameter of colony (mm): 0 mm
Alternaria tenuis; 1 ppm
  Diameter of colony (mm): 33.5 mm
Alternaria tenuis; 10 ppm
  Diameter of colony (mm): 25.8 mm
Alternaria tenuis; 100 ppm
  Diameter of colony (mm): 7.6 mm
Alternaria tenuis; 1000 ppm
  Diameter of colony (mm): 0 mm
[6]
  Shoot up % Cotton: 239%

## CCCCC(C)OP1(=S)OC(C)C(C)S1 (centres unmarked) [Compound 65]
Sclerotinia sclerotinia; 1 ppm
  Diameter of colony (mm): 35.8 mm
Sclerotinia sclerotinia; 10 ppm
  Diameter of colony (mm): 30.1 mm
Sclerotinia sclerotinia; 100 ppm
  Diameter of colony (mm): 3.7 mm
Sclerotinia sclerotinia; 1000 ppm
  Diameter of colony (mm): 0 mm
Penicillium cyclopium; 1 ppm
  Diameter of colony (mm): 24.6 mm
Penicillium cyclopium; 10 ppm
  Diameter of colony (mm): 19.1 mm
Penicillium cyclopium; 100 ppm
  Diameter of colony (mm): 7.5 mm
Penicillium cyclopium; 1000 ppm
  Diameter of colony (mm): 0 mm
Alternaria tenuis; 1 ppm
  Diameter of colony (mm): 33.8 mm
Alternaria tenuis; 10 ppm
  Diameter of colony (mm): 25.3 mm
Alternaria tenuis; 100 ppm
  Diameter of colony (mm): 6.6 mm
Alternaria tenuis; 1000 ppm
  Diameter of colony (mm): 0 mm

## CCCC(C)OP1(=S)OC(C)C(C)S1 (centres unmarked) [Compound 66]
Sclerotinia sclerotinia; 1 ppm
  Diameter of colony (mm): 34.8 mm
Sclerotinia sclerotinia; 10 ppm
  Diameter of colony (mm): 28.8 mm
Sclerotinia sclerotinia; 100 ppm
  Diameter of colony (mm): 4.0 mm
Sclerotinia sclerotinia; 1000 ppm
  Diameter of colony (mm): 0 mm
Penicillium cyclopium; 1 ppm
  Diameter of colony (mm): 25.0 mm
Penicillium cyclopium; 10 ppm
  Diameter of colony (mm): 18.6 mm
Penicillium cyclopium; 100 ppm
  Diameter of colony (mm): 7.5 mm
Penicillium cyclopium; 1000 ppm
  Diameter of colony (mm): 0 mm
Alternaria tenuis; 1 ppm
  Diameter of colony (mm): 34.5 mm
Alternaria tenuis; 10 ppm
  Diameter of colony (mm): 24.4 mm
Alternaria tenuis; 100 ppm
  Diameter of colony (mm): 7.0 mm
Alternaria tenuis; 1000 ppm
  Diameter of colony (mm): 0 mm

## CC(C)CCOP1(=S)OCCS1 (centres unmarked) [Compound 67]
Sclerotinia sclerotinia; 1 ppm
  Diameter of colony (mm): 36.3 mm
Sclerotinia sclerotinia; 10 ppm
  Diameter of colony (mm): 29.6 mm
Sclerotinia sclerotinia; 100 ppm
  Diameter of colony (mm): 3.6 mm
Sclerotinia sclerotinia; 1000 ppm
  Diameter of colony (mm): 0 mm
Penicillium cyclopium; 1 ppm
  Diameter of colony (mm): 25.1 mm
Penicillium cyclopium; 10 ppm
  Diameter of colony (mm): 19.3 mm
Penicillium cyclopium; 100 ppm
  Diameter of colony (mm): 7.0 mm
Penicillium cyclopium; 1000 ppm
  Diameter of colony (mm): 0 mm
Alternaria tenuis; 1 ppm
  Diameter of colony (mm): 35.4 mm
Alternaria tenuis; 10 ppm
  Diameter of colony (mm): 23.8 mm
Alternaria tenuis; 100 ppm
  Diameter of colony (mm): 5.3 mm
Alternaria tenuis; 1000 ppm
  Diameter of colony (mm): 0 mm
